Reference: patent US8476029B2, “MCPP immunoassay” (priority 2009, dated 2013)
Values after ≈ are worked out from the molar mass of the structure shown. Values joined by “and” are separate entries in the source; they are usually repeats but may differ in a detail not shown here. Equal values may be shown once. Read-outs that look alike come from different tables or passages of the source.

Legend:
[1] = tested on: Generic antibody (antibody raised from the mCPP-derived immunogen); format: binding, sheep; details: for % CR (percentage cross-reactivity): based on Nefazodone (100%); for IC50 (standard concentration which produces 50% B/B0): generic antibody
Protocol: (§1) The resulting immunogens were administered separately to adult sheep on a monthly basis to provide target-specific polyclonal antisera. IgG was extracted from the antisera via caprylic acid/ammonium sulphate precipitation of immunoglobulin. Microtitre plates (Thermo Scientific, 95029180) were coated with antibody (125 μl) in coating buffer (10 mM Tris pH 8.5) at 37° C. for 2 hours. […] The plates were then washed. […] The plates were then washed and 125 μl of TMB (Randox, 4380-15) was added to each well and left at room temperature for 20 minutes in the dark. The reaction was stopped using 125 μl of 0.2M sulphuric acid. The absorbances were then read at 450 nm with an ELISA microplate reader (BIO-TEK Instruments, EL340) and the means calculated. Antibody specificity and sensitivity were then determined.

[2] = tested on: Trazodone antibody (antibody raised from the trazodone-derived immunogen); format: binding, sheep; details: for % CR (percentage cross-reactivity): based on Trazodone (100%)
Protocol: as §1

[3] = humans, urine; cited from earlier work

Compound | % CR (percentage cross-reactivity) [1] [%] | IC50 (standard concentration which produces 50% B/B0) [1] [ng/mL] | % B/B0 ([1]; standard conc 0.156 ng/ml) [%] | % B/B0 ([1]; standard conc 0.313 ng/ml) [%] | % B/B0 ([1]; standard conc 0.625 ng/ml) [%] | % B/B0 ([1]; standard conc 1.250 ng/ml) [%] | % B/B0 ([1]; standard conc 2.500 ng/ml) [%] | % B/B0 ([1]; standard conc 5.000 ng/ml) [%] | % B/B0 ([1]; standard conc 10.000 ng/ml) [%] | % CR (percentage cross-reactivity) [2] [%] | % B/B0 ([2]; standard conc 0.156 ng/ml) [%] | % B/B0 ([2]; standard conc 0.313 ng/ml) [%] | % B/B0 ([2]; standard conc 0.625 ng/ml) [%] | % B/B0 ([2]; standard conc 1.250 ng/ml) [%] | % B/B0 ([2]; standard conc 2.500 ng/ml) [%] | % B/B0 ([2]; standard conc 5.000 ng/ml) [%] | % B/B0 ([2]; standard conc 10.000 ng/ml) [%] | A450 (absorbance at 450 nm) ([1]; standard conc 0.156 ng/ml) | A450 (absorbance at 450 nm) ([1]; standard conc 0.313 ng/ml) | A450 (absorbance at 450 nm) ([1]; standard conc 0.625 ng/ml) | further results
CCc1nn(CCCN2CCN(c3cccc(Cl)c3)CC2)c(=O)n1CCOc1ccccc1 [Nefazodone] | 100 | 3.901 (≈ 0.0083 µM) | 91 | 83 | 73 | 58 | 46 | 34 | 24 | 1.38 | 97 | 99 | 97 | 100 | 99 | 105 | 107 | – | – | – | A450 (absorbance at 450 nm) [2]: 1.621 and 1.677 and 1.663 and 1.765 and 1.799 and 1.631 and 1.656; mCPP as share of total metabolites (minor urinary metabolite of nefazodone) [3]: less than 1%
O=c1n(CCCN2CCN(c3cccc(Cl)c3)CC2)nc2ccccn12 [Trazodone, 2-(3-[4-(3-chlorophenyl)piperazin-1-yl]propyl)-[1,2,4]triazolo[4,3-α]pyridin-3(2H)-one] | 733 | – | 67 | 58 | 48 | 35 | 25 | 18 | 13 | 100 | 47 | 33 | 21 | 14 | 9 | 5 | 3 | 1.456 | 1.271 | 1.041 | A450 (absorbance at 450 nm) ([1]; standard conc 1.250 ng/ml): 0.763; A450 (absorbance at 450 nm) ([1]; standard conc 2.500 ng/ml): 0.551; A450 (absorbance at 450 nm) ([1]; standard conc 5.000 ng/ml): 0.398; A450 (absorbance at 450 nm) ([1]; standard conc 10.000 ng/ml): 0.287; A450 (absorbance at 450 nm) ([2]; standard conc 0.156 ng/ml): 0.816; A450 (absorbance at 450 nm) ([2]; standard conc 0.313 ng/ml): 0.570; A450 (absorbance at 450 nm) ([2]; standard conc 0.625 ng/ml): 0.375; A450 (absorbance at 450 nm) ([2]; standard conc 1.250 ng/ml): 0.237; A450 (absorbance at 450 nm) ([2]; standard conc 2.500 ng/ml): 0.151; A450 (absorbance at 450 nm) ([2]; standard conc 5.000 ng/ml): 0.093; A450 (absorbance at 450 nm) ([2]; standard conc 10.000 ng/ml): 0.057
Clc1cccc(N2CCNCC2)c1 [mCPP, 1-(3-chlorophenyl)piperazine] | 46 | 8.476 (≈ 0.0431 µM) | 85 | 79 | 72 | 65 | 55 | 48 | 42 | 0.68 | 98 | 100 | 100 | 100 | 101 | 103 | 106 | 1.821 | 1.679 | 1.534 | A450 (absorbance at 450 nm) ([1]; standard conc 1.250 ng/ml): 1.380; A450 (absorbance at 450 nm) ([1]; standard conc 2.500 ng/ml): 1.183; A450 (absorbance at 450 nm) ([1]; standard conc 5.000 ng/ml): 1.027; A450 (absorbance at 450 nm) ([1]; standard conc 10.000 ng/ml): 0.888; A450 (absorbance at 450 nm) ([2]; standard conc 0.156 ng/ml): 1.721; A450 (absorbance at 450 nm) ([2]; standard conc 0.313 ng/ml): 1.755; A450 (absorbance at 450 nm) ([2]; standard conc 0.625 ng/ml): 1.756; A450 (absorbance at 450 nm) ([2]; standard conc 1.250 ng/ml): 1.759; A450 (absorbance at 450 nm) ([2]; standard conc 2.500 ng/ml): 1.782; A450 (absorbance at 450 nm) ([2]; standard conc 5.000 ng/ml): 1.814; A450 (absorbance at 450 nm) ([2]; standard conc 10.000 ng/ml): 1.857
